From the supplement of paper PMC8967900

Tested on: RPMI-8402
Assay: selective drug sensitivity score (sDSS, relative to normal bone marrow) (sDSS (score)); higher = more potent and effective on the cell line relative to normal bone marrow cells
Conditions: 72 h
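Further: ALL cell lines in 384-well plates, five doses spanning 10,000-fold, each plate scaled between vehicle and 100 µmol/L benzalkonium chloride controls, sDSS an adapted area-under-curve metric.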

Compound	selective drug sensitivity score
Cc1nc(Nc2ncc(C(=O)Nc3c(C)cccc3Cl)s2)cc(N2CCN(CCO)CC2)n1 [Dasatinib] (top concentration 1000 nM)	-0.8
N[C@@H]1CCCN(c2c(/C=C3\SC(=O)NC3=O)cccc2-c2ccccc2)C1 [AZD1208] (top concentration 10000 nM)	-3.1
CC(C)C[C@H](NC(=O)CNC(=O)c1cc(Cl)ccc1Cl)B(O)O [Ixazomib] (top concentration 1000 nM)	6.56
C=CC(=O)N1CCC[C@@H](n2nc(-c3ccc(Oc4ccccc4)cc3)c3c(N)ncnc32)C1 [Ibrutinib] (top concentration 1000 nM)	1.1
Cn1cnc2c(F)c(Nc3ccc(Br)cc3F)c(C(=O)NOCCO)cc21 [Binimetinib] (top concentration 1000 nM)	-2.22
COc1cc(Nc2ncc(F)c(Nc3ccc4c(n3)N(COP(=O)(O)O)C(=O)C(C)(C)O4)n2)cc(OC)c1OC [Fostamatinib] (top concentration 2500 nM)	-0.24
COc1cc2c(Oc3ccc(NC(=O)C4(C(=O)Nc5ccc(F)cc5)CC4)cc3F)ccnc2cc1OCCCN1CCOCC1 [Foretinib] (top concentration 1000 nM)	0.34
Sc1ncnc2nc[nH]c12 [Mercaptopurine] (top concentration 10000 nM)	9.2
COCCNCc1ccc(-c2cc3nccc(Oc4ccc(NC(=S)NC(=O)Cc5ccc(F)cc5)cc4F)c3s2)nc1 [Glesatinib] (top concentration 2500 nM)	0.54
Cn1nccc1Nc1nccc(-c2ccn([C@H](CO)c3ccc(Cl)c(F)c3)c(=O)c2)n1 [Ravoxertinib] (top concentration 10000 nM)	1.9
CC1=NN(c2ccc(C(=O)O)cc2)C(=O)C1=Cc1ccc(-c2cc(C)c(C)cc2[N+](=O)[O-])o1 [C646] (top concentration 25000 nM)	-2.06
CC(C)c1cc(C(=O)N2Cc3ccc(CN4CCN(C)CC4)cc3C2)c(O)cc1O [Onalespib] (top concentration 2500 nM)	1.32
CCN1C(=O)CNc2ncc(-c3ccc(-c4nc[nH]n4)nc3C)nc21 [CC-115] (top concentration 10000 nM)	0.94
COc1cc(N2CCC(N3CCN(C)CC3)CC2)ccc1Nc1ncc(Cl)c(Nc2ccccc2P(C)(C)=O)n1 [Brigatinib] (top concentration 1000 nM)	-2.44
CN1CCN(c2nc(C3=C(c4c[nH]c5ccccc45)C(=O)NC3=O)c3ccccc3n2)CC1 [Sotrastaurin] (top concentration 10000 nM)	0
CCN(CC)Cc1ccc2cc(COC(=O)Nc3ccc(C(=O)NO)cc3)ccc2c1 [Givinostat] (top concentration 1000 nM)	3.9
CNC(=O)c1cc(Oc2ccc(NC(=O)Nc3ccc(Cl)c(C(F)(F)F)c3)cc2)ccn1 [Sorafenib] (top concentration 1000 nM)	0
COc1ccc(S(=O)(=O)Nc2cccnc2Nc2ccc(O)cc2)cc1 [ABT-751] (top concentration 10000 nM)	11.9
C[C@@H](Oc1ccc2[nH]nc(/C=C/c3cnn(CCO)c3)c2c1)c1c(Cl)cncc1Cl (top concentration 1000 nM)	-3.14

Tested on: TMD5
Assay: as above
Conditions: 72 h

Compound	selective drug sensitivity score
Cc1nc(Nc2ncc(C(=O)Nc3c(C)cccc3Cl)s2)cc(N2CCN(CCO)CC2)n1 [Dasatinib] (top concentration 1000 nM)	10.4
N[C@@H]1CCCN(c2c(/C=C3\SC(=O)NC3=O)cccc2-c2ccccc2)C1 [AZD1208] (top concentration 10000 nM)	3.1
CC(C)C[C@H](NC(=O)CNC(=O)c1cc(Cl)ccc1Cl)B(O)O [Ixazomib] (top concentration 1000 nM)	4.06
C=CC(=O)N1CCC[C@@H](n2nc(-c3ccc(Oc4ccccc4)cc3)c3c(N)ncnc32)C1 [Ibrutinib] (top concentration 1000 nM)	0.1
Cn1cnc2c(F)c(Nc3ccc(Br)cc3F)c(C(=O)NOCCO)cc21 [Binimetinib] (top concentration 1000 nM)	2.38
COc1cc(Nc2ncc(F)c(Nc3ccc4c(n3)N(COP(=O)(O)O)C(=O)C(C)(C)O4)n2)cc(OC)c1OC [Fostamatinib] (top concentration 2500 nM)	-2.84
COc1cc2c(Oc3ccc(NC(=O)C4(C(=O)Nc5ccc(F)cc5)CC4)cc3F)ccnc2cc1OCCCN1CCOCC1 [Foretinib] (top concentration 1000 nM)	2.64
Sc1ncnc2nc[nH]c12 [Mercaptopurine] (top concentration 10000 nM)	0
COCCNCc1ccc(-c2cc3nccc(Oc4ccc(NC(=S)NC(=O)Cc5ccc(F)cc5)cc4F)c3s2)nc1 [Glesatinib] (top concentration 2500 nM)	2.74
Cn1nccc1Nc1nccc(-c2ccn([C@H](CO)c3ccc(Cl)c(F)c3)c(=O)c2)n1 [Ravoxertinib] (top concentration 10000 nM)	3.2
CC1=NN(c2ccc(C(=O)O)cc2)C(=O)C1=Cc1ccc(-c2cc(C)c(C)cc2[N+](=O)[O-])o1 [C646] (top concentration 25000 nM)	-2.06
CC(C)c1cc(C(=O)N2Cc3ccc(CN4CCN(C)CC4)cc3C2)c(O)cc1O [Onalespib] (top concentration 2500 nM)	-3.28
CCN1C(=O)CNc2ncc(-c3ccc(-c4nc[nH]n4)nc3C)nc21 [CC-115] (top concentration 10000 nM)	-1.66
COc1cc(N2CCC(N3CCN(C)CC3)CC2)ccc1Nc1ncc(Cl)c(Nc2ccccc2P(C)(C)=O)n1 [Brigatinib] (top concentration 1000 nM)	-2.04
CN1CCN(c2nc(C3=C(c4c[nH]c5ccccc45)C(=O)NC3=O)c3ccccc3n2)CC1 [Sotrastaurin] (top concentration 10000 nM)	2.9
CCN(CC)Cc1ccc2cc(COC(=O)Nc3ccc(C(=O)NO)cc3)ccc2c1 [Givinostat] (top concentration 1000 nM)	-0.1
CNC(=O)c1cc(Oc2ccc(NC(=O)Nc3ccc(Cl)c(C(F)(F)F)c3)cc2)ccn1 [Sorafenib] (top concentration 1000 nM)	0
COc1ccc(S(=O)(=O)Nc2cccnc2Nc2ccc(O)cc2)cc1 [ABT-751] (top concentration 10000 nM)	7.32
C[C@@H](Oc1ccc2[nH]nc(/C=C/c3cnn(CCO)c3)c2c1)c1c(Cl)cncc1Cl (top concentration 1000 nM)	-0.74

Tested on: COG-LL-332h
Assay: as above
Conditions: 72 h

Compound	selective drug sensitivity score
Cc1nc(Nc2ncc(C(=O)Nc3c(C)cccc3Cl)s2)cc(N2CCN(CCO)CC2)n1 [Dasatinib] (top concentration 1000 nM)	17
N[C@@H]1CCCN(c2c(/C=C3\SC(=O)NC3=O)cccc2-c2ccccc2)C1 [AZD1208] (top concentration 10000 nM)	-2.9
CC(C)C[C@H](NC(=O)CNC(=O)c1cc(Cl)ccc1Cl)B(O)O [Ixazomib] (top concentration 1000 nM)	8.16
C=CC(=O)N1CCC[C@@H](n2nc(-c3ccc(Oc4ccccc4)cc3)c3c(N)ncnc32)C1 [Ibrutinib] (top concentration 1000 nM)	2.4
Cn1cnc2c(F)c(Nc3ccc(Br)cc3F)c(C(=O)NOCCO)cc21 [Binimetinib] (top concentration 1000 nM)	-2.22
COc1cc(Nc2ncc(F)c(Nc3ccc4c(n3)N(COP(=O)(O)O)C(=O)C(C)(C)O4)n2)cc(OC)c1OC [Fostamatinib] (top concentration 2500 nM)	-0.44
COc1cc2c(Oc3ccc(NC(=O)C4(C(=O)Nc5ccc(F)cc5)CC4)cc3F)ccnc2cc1OCCCN1CCOCC1 [Foretinib] (top concentration 1000 nM)	4.74
Sc1ncnc2nc[nH]c12 [Mercaptopurine] (top concentration 10000 nM)	15.5
COCCNCc1ccc(-c2cc3nccc(Oc4ccc(NC(=S)NC(=O)Cc5ccc(F)cc5)cc4F)c3s2)nc1 [Glesatinib] (top concentration 2500 nM)	4.54
Cn1nccc1Nc1nccc(-c2ccn([C@H](CO)c3ccc(Cl)c(F)c3)c(=O)c2)n1 [Ravoxertinib] (top concentration 10000 nM)	4.1
CC1=NN(c2ccc(C(=O)O)cc2)C(=O)C1=Cc1ccc(-c2cc(C)c(C)cc2[N+](=O)[O-])o1 [C646] (top concentration 25000 nM)	1.74
CC(C)c1cc(C(=O)N2Cc3ccc(CN4CCN(C)CC4)cc3C2)c(O)cc1O [Onalespib] (top concentration 2500 nM)	7.62
CCN1C(=O)CNc2ncc(-c3ccc(-c4nc[nH]n4)nc3C)nc21 [CC-115] (top concentration 10000 nM)	2.54
COc1cc(N2CCC(N3CCN(C)CC3)CC2)ccc1Nc1ncc(Cl)c(Nc2ccccc2P(C)(C)=O)n1 [Brigatinib] (top concentration 1000 nM)	-3.34
CN1CCN(c2nc(C3=C(c4c[nH]c5ccccc45)C(=O)NC3=O)c3ccccc3n2)CC1 [Sotrastaurin] (top concentration 10000 nM)	2
CCN(CC)Cc1ccc2cc(COC(=O)Nc3ccc(C(=O)NO)cc3)ccc2c1 [Givinostat] (top concentration 1000 nM)	-0.3
CNC(=O)c1cc(Oc2ccc(NC(=O)Nc3ccc(Cl)c(C(F)(F)F)c3)cc2)ccn1 [Sorafenib] (top concentration 1000 nM)	0.1
COc1ccc(S(=O)(=O)Nc2cccnc2Nc2ccc(O)cc2)cc1 [ABT-751] (top concentration 10000 nM)	11.1
C[C@@H](Oc1ccc2[nH]nc(/C=C/c3cnn(CCO)c3)c2c1)c1c(Cl)cncc1Cl (top concentration 1000 nM)	1.96

Tested on: HPB-ALL
Assay: as above
Conditions: 72 h

Compound	selective drug sensitivity score
Cc1nc(Nc2ncc(C(=O)Nc3c(C)cccc3Cl)s2)cc(N2CCN(CCO)CC2)n1 [Dasatinib] (top concentration 1000 nM)	-2.8
N[C@@H]1CCCN(c2c(/C=C3\SC(=O)NC3=O)cccc2-c2ccccc2)C1 [AZD1208] (top concentration 10000 nM)	-4.4
CC(C)C[C@H](NC(=O)CNC(=O)c1cc(Cl)ccc1Cl)B(O)O [Ixazomib] (top concentration 1000 nM)	8.46
C=CC(=O)N1CCC[C@@H](n2nc(-c3ccc(Oc4ccccc4)cc3)c3c(N)ncnc32)C1 [Ibrutinib] (top concentration 1000 nM)	1.5
Cn1cnc2c(F)c(Nc3ccc(Br)cc3F)c(C(=O)NOCCO)cc21 [Binimetinib] (top concentration 1000 nM)	-2.22
COc1cc(Nc2ncc(F)c(Nc3ccc4c(n3)N(COP(=O)(O)O)C(=O)C(C)(C)O4)n2)cc(OC)c1OC [Fostamatinib] (top concentration 2500 nM)	-1.94
COc1cc2c(Oc3ccc(NC(=O)C4(C(=O)Nc5ccc(F)cc5)CC4)cc3F)ccnc2cc1OCCCN1CCOCC1 [Foretinib] (top concentration 1000 nM)	3.34
Sc1ncnc2nc[nH]c12 [Mercaptopurine] (top concentration 10000 nM)	14.9
COCCNCc1ccc(-c2cc3nccc(Oc4ccc(NC(=S)NC(=O)Cc5ccc(F)cc5)cc4F)c3s2)nc1 [Glesatinib] (top concentration 2500 nM)	-0.26
Cn1nccc1Nc1nccc(-c2ccn([C@H](CO)c3ccc(Cl)c(F)c3)c(=O)c2)n1 [Ravoxertinib] (top concentration 10000 nM)	-0.4
CC1=NN(c2ccc(C(=O)O)cc2)C(=O)C1=Cc1ccc(-c2cc(C)c(C)cc2[N+](=O)[O-])o1 [C646] (top concentration 25000 nM)	5.74
CC(C)c1cc(C(=O)N2Cc3ccc(CN4CCN(C)CC4)cc3C2)c(O)cc1O [Onalespib] (top concentration 2500 nM)	4.62
CCN1C(=O)CNc2ncc(-c3ccc(-c4nc[nH]n4)nc3C)nc21 [CC-115] (top concentration 10000 nM)	1.84
COc1cc(N2CCC(N3CCN(C)CC3)CC2)ccc1Nc1ncc(Cl)c(Nc2ccccc2P(C)(C)=O)n1 [Brigatinib] (top concentration 1000 nM)	3.06
CN1CCN(c2nc(C3=C(c4c[nH]c5ccccc45)C(=O)NC3=O)c3ccccc3n2)CC1 [Sotrastaurin] (top concentration 10000 nM)	2.6
CCN(CC)Cc1ccc2cc(COC(=O)Nc3ccc(C(=O)NO)cc3)ccc2c1 [Givinostat] (top concentration 1000 nM)	6.3
CNC(=O)c1cc(Oc2ccc(NC(=O)Nc3ccc(Cl)c(C(F)(F)F)c3)cc2)ccn1 [Sorafenib] (top concentration 1000 nM)	0.1
COc1ccc(S(=O)(=O)Nc2cccnc2Nc2ccc(O)cc2)cc1 [ABT-751] (top concentration 10000 nM)	13.2
C[C@@H](Oc1ccc2[nH]nc(/C=C/c3cnn(CCO)c3)c2c1)c1c(Cl)cncc1Cl (top concentration 1000 nM)	1.46

Tested on: NALM-16
Assay: as above
Conditions: 72 h

Compound	selective drug sensitivity score
Cc1nc(Nc2ncc(C(=O)Nc3c(C)cccc3Cl)s2)cc(N2CCN(CCO)CC2)n1 [Dasatinib] (top concentration 1000 nM)	-2.8
N[C@@H]1CCCN(c2c(/C=C3\SC(=O)NC3=O)cccc2-c2ccccc2)C1 [AZD1208] (top concentration 10000 nM)	-3.2
CC(C)C[C@H](NC(=O)CNC(=O)c1cc(Cl)ccc1Cl)B(O)O [Ixazomib] (top concentration 1000 nM)	0.66
C=CC(=O)N1CCC[C@@H](n2nc(-c3ccc(Oc4ccccc4)cc3)c3c(N)ncnc32)C1 [Ibrutinib] (top concentration 1000 nM)	0
Cn1cnc2c(F)c(Nc3ccc(Br)cc3F)c(C(=O)NOCCO)cc21 [Binimetinib] (top concentration 1000 nM)	-0.12
COc1cc(Nc2ncc(F)c(Nc3ccc4c(n3)N(COP(=O)(O)O)C(=O)C(C)(C)O4)n2)cc(OC)c1OC [Fostamatinib] (top concentration 2500 nM)	-1.44
COc1cc2c(Oc3ccc(NC(=O)C4(C(=O)Nc5ccc(F)cc5)CC4)cc3F)ccnc2cc1OCCCN1CCOCC1 [Foretinib] (top concentration 1000 nM)	1.04
Sc1ncnc2nc[nH]c12 [Mercaptopurine] (top concentration 10000 nM)	7.9
COCCNCc1ccc(-c2cc3nccc(Oc4ccc(NC(=S)NC(=O)Cc5ccc(F)cc5)cc4F)c3s2)nc1 [Glesatinib] (top concentration 2500 nM)	0.34
Cn1nccc1Nc1nccc(-c2ccn([C@H](CO)c3ccc(Cl)c(F)c3)c(=O)c2)n1 [Ravoxertinib] (top concentration 10000 nM)	-1.6
CC1=NN(c2ccc(C(=O)O)cc2)C(=O)C1=Cc1ccc(-c2cc(C)c(C)cc2[N+](=O)[O-])o1 [C646] (top concentration 25000 nM)	-2.06
CC(C)c1cc(C(=O)N2Cc3ccc(CN4CCN(C)CC4)cc3C2)c(O)cc1O [Onalespib] (top concentration 2500 nM)	1.82
CCN1C(=O)CNc2ncc(-c3ccc(-c4nc[nH]n4)nc3C)nc21 [CC-115] (top concentration 10000 nM)	1.34
COc1cc(N2CCC(N3CCN(C)CC3)CC2)ccc1Nc1ncc(Cl)c(Nc2ccccc2P(C)(C)=O)n1 [Brigatinib] (top concentration 1000 nM)	-3.14
CN1CCN(c2nc(C3=C(c4c[nH]c5ccccc45)C(=O)NC3=O)c3ccccc3n2)CC1 [Sotrastaurin] (top concentration 10000 nM)	1.8
CCN(CC)Cc1ccc2cc(COC(=O)Nc3ccc(C(=O)NO)cc3)ccc2c1 [Givinostat] (top concentration 1000 nM)	-1
CNC(=O)c1cc(Oc2ccc(NC(=O)Nc3ccc(Cl)c(C(F)(F)F)c3)cc2)ccn1 [Sorafenib] (top concentration 1000 nM)	0
COc1ccc(S(=O)(=O)Nc2cccnc2Nc2ccc(O)cc2)cc1 [ABT-751] (top concentration 10000 nM)	11.5
C[C@@H](Oc1ccc2[nH]nc(/C=C/c3cnn(CCO)c3)c2c1)c1c(Cl)cncc1Cl (top concentration 1000 nM)	-1.44
